Entries after “also recorded” stand apart in the source; their conditions may differ.
Legend:
[1] = Water activity measured by DVS (weight difference between 0 and 90% relative humidity); assay type: physicochemical; conditions: 25° C., 0-90-0% relative humidity, step 10%; compared with prior art Siponimod Fumarate (1:0.5), Form A
Description: Water activity of the prior art form and solid forms of presented invention was measured: DVS machine ProUmid SPX-1μ Advance, 25° C., 0-90-0% relative humidity, step 10%, maximal time per step 10 hours. Equilibrium bandwidth 0.05%/60 minutes.
Water activity: a difference between the weights of the sample in 0 and 90% of relative humidity at a constant temperature. It corresponds to the amount of water taken by the tested compound when the humidity changes from 0 to 90% at a constant temperature. The higher water activity the more water can be taken by the compound and that might result in lower purity of the compound because hydrolysis impurities can be formed.

[2] = Comparison of crystals (SEM pictures): crystal size and proneness to charging; assay type: physicochemical; conditions: compared with prior art fumarate salt; for Proneness of crystals to charging: relates to processability into final forms (tablets); for Crystal size: crystals depicted in FIGS. 17 to 28
Description: • DCS patterns were obtained using the following conditions: 10° C./min->250° C. • Pictures of crystals were obtained by SEM Jeol JCM-6000. • Nuclear magnetic resonance spectroscopy (NMR) was performed using Avance III 400 MHz NMR spectrometer.
Prior art fumarate salt was prepared according to procedure described in WO2010/080409. In FIGS. 17 to 22 the crystals of prior art salt (FIG. 22) and crystals of salts of the presented invention (FIGS. 17 to 21) are depicted.
The crystals of solid Form 11 of cocrystal of Siponimod with adipic acid (2:1) are depicted in FIGS. 25 to 27. The crystal of Siponimod fumarate, Form A, are depicted in FIG. 28.

| Proneness of crystals to charging [2] | Crystal size [2] | Compound | Water activity [1] |
| --- | --- | --- | --- |
| less prone to charging | much bigger than crystals of Form A | CCc1cc(/C(C)=N/OCc2ccc(C3CCCCC3)c(C(F)(F)F)c2)ccc1CN1CC(C(=O)O)C1.CCc1cc(/C(C)=N/OCc2ccc(C3CCCCC3)c(C(F)(F)F)c2)ccc1CN1CC(C(=O)O)C1.O=C(O)CCCCC(=O)O [Form 11] | lower water activity than Siponimod fumarate, Form A; also recorded: better comparing to prior art forms |
| prone to charging | small crystals | CCc1cc(/C(C)=N/OCc2ccc(C3CCCCC3)c(C(F)(F)F)c2)ccc1CN1CC(C(=O)O)C1.CCc1cc(/C(C)=N/OCc2ccc(C3CCCCC3)c(C(F)(F)F)c2)ccc1CN1CC(C(=O)O)C1.O=C(O)/C=C/C(=O)O [Prior art fumarate salt, reference compound] | – |

From patent US20240010616A1, “SIPONIMOD SALTS AND COCRYSTALS” (Synthon B.V., priority 2020, published 2024)
